Measurements taken from US20230348376A1 (TEIJIN PHARMA LIMITED, priority 2020, published 2023).

Biological target: T1, human VDR (Homo sapiens, UniProt P11473)
T1 sequence (P11473 1-427): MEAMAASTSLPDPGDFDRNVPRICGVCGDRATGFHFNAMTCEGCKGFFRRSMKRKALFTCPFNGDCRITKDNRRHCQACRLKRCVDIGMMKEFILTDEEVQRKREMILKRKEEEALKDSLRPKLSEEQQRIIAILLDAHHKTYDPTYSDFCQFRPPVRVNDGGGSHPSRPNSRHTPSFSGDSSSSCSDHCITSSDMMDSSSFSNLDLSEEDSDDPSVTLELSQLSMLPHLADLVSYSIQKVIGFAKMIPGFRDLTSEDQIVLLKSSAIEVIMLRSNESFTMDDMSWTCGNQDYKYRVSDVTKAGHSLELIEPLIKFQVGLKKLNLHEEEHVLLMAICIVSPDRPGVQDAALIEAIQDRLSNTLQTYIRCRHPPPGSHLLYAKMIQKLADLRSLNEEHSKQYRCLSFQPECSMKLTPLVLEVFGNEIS
T1 sequence (P19793 1-462 partner): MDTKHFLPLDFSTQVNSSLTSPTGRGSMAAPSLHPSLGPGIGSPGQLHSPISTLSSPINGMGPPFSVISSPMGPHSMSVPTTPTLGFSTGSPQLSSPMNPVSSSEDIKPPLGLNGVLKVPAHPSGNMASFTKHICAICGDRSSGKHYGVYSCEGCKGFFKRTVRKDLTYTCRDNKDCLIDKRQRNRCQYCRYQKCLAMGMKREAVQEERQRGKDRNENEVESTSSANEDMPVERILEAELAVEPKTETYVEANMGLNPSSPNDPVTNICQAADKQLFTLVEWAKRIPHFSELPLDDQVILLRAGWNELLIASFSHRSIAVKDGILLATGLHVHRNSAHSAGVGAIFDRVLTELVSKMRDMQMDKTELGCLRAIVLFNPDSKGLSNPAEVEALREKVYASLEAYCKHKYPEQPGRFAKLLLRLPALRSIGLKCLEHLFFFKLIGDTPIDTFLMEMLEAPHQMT
Experiment: Evaluation of VDR transcription activity in human osteoblasts (HOS cells), luciferase reporter
Settings: Activity (EC50, VDR transcription activity), HOS cells transfected with human VDR, human RXRα and DR3 luciferase reporter; 21 hours

Row | SMILES | EC50 [nM]
1 | C=C1[C@H](O)CC(=C/C=C2\CCC[C@]3(C)[C@@H]([C@H](C)CN4CCC(O)(C(F)(F)F)CC4)CC[C@@H]23)C[C@H]1O [Compound C004, (1R,3R)-5-(2-((1R,3aS,7aR,E)-1-((S)-1-(4-hydroxy-4-(trifluoromethyl)piperidin-1-yl)propan-2-yl)-7a-methyloctahydro-4H-inden-4-ylidene)ethylidene)-2-methylenecyclohexane-1,3-diol] | 10 to 100
2 | C=C1C(O)CC(=C/C=C2\CCC[C@]3(C)[C@@H]([C@H](C)CCN4CCOC5(CC5)C4)CC[C@@H]23)C[C@H]1O (stereo in doubt) [Compound D026, (1R,3S)-5-(2-((1R,3aS,7aR,E)-1-((R)-4-(4-oxa-7-azaspiro[2.5]octan-7-yl)butan-2-yl)-7a-methyloctahydro-4H-inden-4-ylidene)ethylidene)-2-methylenecyclohexane-1,3-diol] | 1 to 10
3 | C[C@H](CN1CCCC(O)(C(F)F)C1)[C@H]1CC[C@H]2/C(=C/C=C3C[C@@H](O)C[C@H](O)C3)CCC[C@]12C (single isomer, unassigned) [Compound C035b] | 10 to 100
4 | C=C1[C@H](O)CC(=C/C=C2\CCC[C@]3(C)[C@@H]([C@H](C)CN4CCC(O)(C(F)F)CC4)CC[C@@H]23)C[C@H]1O [Compound C022, (1R,3R)-5-(2-((1R,3aS,7aR,E)-1-((S)-1-(4-(difluoromethyl)-4-hydroxypiperidin-1-yl)propan-2-yl)-7a-methyloctahydro-4H-inden-4-ylidene)ethylidene)-2-methylenecyclohexane-1,3-diol] | 10 to 100
5 | C=C1[C@H](O)CC(=C/C=C2\CCC[C@]3(C)[C@@H]([C@H](C)CN4CC(OCC(F)F)C4)CC[C@@H]23)C[C@H]1O [Compound A016, (1R,3R)-5-(2-((1R,3aS,7aR,E)-1-((S)-1-(3-(2,2-difluoroethoxy)azetidin-1-yl)propan-2-yl)-7a-methyloctahydro-4H-inden-4-ylidene)ethylidene)-2-methylenecyclohexane-1,3-diol] | 10 to 100
6 | C[C@H](CCCN1CC[C@H](C(F)F)C1)[C@H]1CC[C@H]2/C(=C/C=C3C[C@@H](O)C[C@H](O)C3)CCC[C@]12C [Compound B084, (1R,3R)-5-(2-((1R,3aS,7aR,E)-1-((R)-5-((S)-3-(difluoromethyl)pyrrolidin-1-yl)pentan-2-yl)-7a-methyloctahydro-4H-inden-4-ylidene)ethylidene)cyclohexane-1,3-diol] | 10 to 100
7 | C[C@@H](CN1CC[C@@H](F)C1)[C@H]1CC[C@H]2/C(=C/C=C3CC(O)C[C@H](O)C3)CCC[C@]12C (stereo in doubt) [Compound B098, (1R,3S)-5-(2-((1R,3aS,7aR,E)-1-((R)-1-((R)-3-fluoropyrrolidin-1-yl)propan-2-yl)-7a-methyloctahydro-4H-inden-4-ylidene)ethylidene)cyclohexane-1,3-diol] | 10 to 100
8 | C=C1[C@H](O)CC(=C/C=C2\CCC[C@]3(C)[C@@H]([C@H](C)CN4CCC(C(F)F)CC4)CC[C@@H]23)C[C@H]1O [Compound C015] | 10 to 100
9 | C[C@H](CCN1CCO[C@H](C(F)F)C1)[C@H]1CC[C@H]2/C(=C/C=C3C[C@@H](O)C[C@H](O)C3)CCC[C@]12C [Compound D034, (1R,3R)-5-(2-((1R,3aS,7aR,E)-1-((R)-4-((S)-2-(difluoromethyl)morpholino)butan-2-yl)-7a-methyloctahydro-4H-inden-4-ylidene)ethylidene)cyclohexane-1,3-diol] | 10 to 100
10 | C=C1[C@H](O)CC(=C/C=C2\CCC[C@]3(C)[C@@H]([C@H](C)CN4CC(F)C4)CC[C@@H]23)C[C@H]1O [Compound A002, (1R,3R)-5-(2-((1R,3aS,7aR,E)-1-((S)-1-(3-fluoroazetidin-1-yl)propan-2-yl)-7a-methyloctahydro-4H-inden-4-ylidene)ethylidene)-2-methylenecyclohexane-1,3-diol] | 10 to 100
11 | C=C1/C(=C\C=C2/CCC[C@]3(C)[C@@H]([C@H](C)CN4CCCC(C)(O)C4)CC[C@@H]23)C[C@@H](O)C[C@@H]1O (single isomer, unassigned) [Compound C037a] | < 1
12 | C=C1/C(=C\C=C2/CCC[C@]3(C)[C@@H]([C@H](C)CN4CCCC(O)(C(F)F)C4)CC[C@@H]23)C[C@@H](O)C[C@@H]1O (single isomer, unassigned) [Compound C034b] | 10 to 100
13 | C=C1[C@H](O)CC(=C/C=C2\CCC[C@]3(C)[C@@H]([C@H](C)CN4CC(OC(F)F)C4)CC[C@@H]23)C[C@H]1O [Compound A018] | 1 to 10
14 | C=C1[C@H](O)CC(=C/C=C2\CCC[C@]3(C)[C@@H]([C@H](C)CN4CCCC(C)(OC)C4)CC[C@@H]23)C[C@H]1O (single isomer, unassigned) [Compound C047a] | 1 to 10
15 | C[C@H](CN1CC(O)(C(F)(F)F)C1)[C@H]1CC[C@H]2/C(=C/C=C3C[C@@H](O)C[C@H](O)C3)CCC[C@]12C [Compound A010, (1R,3R)-5-(2-((1R,3aS,7aR,E)-1-((S)-1-(3-hydroxy-3-(trifluoromethyl)azetidin-1-yl)propan-2-yl)-7a-methyloctahydro-4H-inden-4-ylidene)ethylidene)cyclohexane-1,3-diol] | 1 to 10

Further lines, results first:

Row | EC50 [nM] | SMILES
16 | 1 to 10 | C=C1[C@H](O)CC(=C/C=C2\CCC[C@]3(C)[C@@H]([C@H](C)CN4CC[C@@H](OC(F)F)C4)CC[C@@H]23)C[C@H]1O [Compound B050, (1R,3R)-5-(2-((1R,3aS,7aR,E)-1-((S)-1-((R)-3-(difluoromethoxy)pyrrolidin-1-yl)propan-2-yl)-7a-methyloctahydro-4H-inden-4-ylidene)ethylidene)-2-methylenecyclohexane-1,3-diol]
17 | 10 to 100 | C=C1/C(=C\C=C2/CCC[C@]3(C)[C@@H]([C@@H](C)CN4CC[C@@H](C)C4)CC[C@@H]23)C[C@@H](O)C[C@@H]1O [Compound B011, (1R,3S,Z)-5-(2-((1R,3aS,7aR,E)-7a-methyl-1-((R)-1-((R)-3-methylpyrrolidin-1-yl)propan-2-yl)octahydro-4H-inden-4-ylidene)ethylidene)-4-methylenecyclohexane-1,3-diol]
18 | 10 to 100 | C=C1/C(=C\C=C2/CCC[C@]3(C)[C@@H]([C@H](C)CN4CC[C@H](OC(F)(F)F)C4)CC[C@@H]23)C[C@@H](O)C[C@@H]1O [Compound B065, (1R,3S,Z)-5-(2-((1R,3aS,7aR,E)-7a-methyl-1-((S)-1-((S)-3-(trifluoromethoxy)pyrrolidin-1-yl)propan-2-yl)octahydro-4H-inden-4-ylidene)ethylidene)-4-methylenecyclohexane-1,3-diol]
19 | 1 to 10 | C=C1[C@H](O)CC(=C/C=C2\CCC[C@]3(C)[C@@H]([C@H](C)CCN4CC[C@@H](C(C)(F)F)C4)CC[C@@H]23)C[C@H]1O [Compound B093, (1R,3R)-5-(2-((1R,3aS,7aR,E)-1-((R)-4-((R)-3-(1,1-difluoroethyl)pyrrolidin-1-yl)butan-2-yl)-7a-methyloctahydro-4H-inden-4-ylidene)ethylidene)-2-methylenecyclohexane-1,3-diol]
20 | 1 to 10 | C=C1/C(=C\C=C2/CCC[C@]3(C)[C@@H]([C@H](C)CN4CC[C@@H](C(C)(F)F)C4)CC[C@@H]23)C[C@@H](O)[C@H](C)[C@@H]1O [Compound B033, (1R,2S,3S,Z)-5-(2-((1R,3aS,7aR,E)-1-((S)-1-((R)-3-(1,1-difluoroethyl)pyrrolidin-1-yl)propan-2-yl)-7a-methyloctahydro-4H-inden-4-ylidene)ethylidene)-2-methyl-4-methylenecyclohexane-1,3-diol]
21 | 10 to 100 | C=C1[C@H](O)CC(=C/C=C2\CCC[C@]3(C)[C@@H]([C@H](C)CN4CCC(C(F)(F)F)CC4)CC[C@@H]23)C[C@H]1O [Compound C009, (1R,3R)-5-(2-((1R,3aS,7aR,E)-7a-methyl-1-((S)-1-(4-(trifluoromethyl)piperidin-1-yl)propan-2-yl)octahydro-4H-inden-4-ylidene)ethylidene)-2-methylenecyclohexane-1,3-diol]
22 | < 1 | C=C1/C(=C\C=C2/CCC[C@]3(C)[C@@H]([C@@H](C)CN4CCCC(O)(C(F)(F)F)C4)CC[C@@H]23)C[C@@H](O)C[C@@H]1O (single isomer, unassigned) [Compound C033a]
23 | 1 to 10 | C=C1[C@H](O)CC(=C/C=C2\CCC[C@]3(C)[C@@H]([C@H](C)CN4CC[C@H](CC)C4)CC[C@@H]23)C[C@H]1O [Compound B005, (1R,3R)-5-(2-((1R,3aS,7aR,E)-1-((S)-1-((S)-3-ethylpyrrolidin-1-yl)propan-2-yl)-7a-methyloctahydro-4H-inden-4-ylidene)ethylidene)-2-methylenecyclohexane-1,3-diol]
